Measured values from patent US20140249076A1, “AMYLIN-CALCITONIN CHIMERIC PEPTIDES CONJUGATED TO DURATION ENHANCING MOIETIES” (AMYLIN PHARMACEUTICALS, LLC, priority 2011, published 2014).
Numbered stars: 1 amine (or outer) side, 2 acyl side, 3 side chain; on linkers, the order of the positions; unused ones are H or OH. Bridge positions count the residues as written; N and C are the ends. Side chains are listed from the residue outwards. Peptide text beside a SMILES is read from it. * marks the point of attachment. γGlu = O=C(O)[C@H](CCC(=O)[*:2])N[*:1]; Palmitoyl = CCCCCCCCCCCCCCCC(=O)*

Tested on: mice
Experiment: Forced swim test (FST)
Type: in vivo, mouse
Conditions: qualitative result; 0.03 mg/kg dosing, as in Example 8
Description: The forced swim test (FST) is a commonly used paradigm to evaluate antidepressant activity of drugs. The FST is based on measurement of the animal's floating time in a tank filled with water. When rats or mice are forced to swim in a deep cylinder with tepid water they become nearly immobile and cease trying to escape. Without wishing to be bound by any theory, it is believe that this characteristic immobile posture reflects a depressive-like state which is readily influenced by a wide variety of antidepressants. See, e.g., Hedou et al., 2001, Pharmacol, Biochem. Behay. 70:65-76; Chaki et al., 2003, J. Pharmacol. Exp. Ther. 304:818-826; Porsolt et al., 1977, Nature 266:730-732. Antidepressants decrease the immobility time in the FST. Vehicle or test compound can be delivered continuously for two weeks to mice by subcutaneously implanted osmotic pumps prior to the FST. Indeed, any route of administration (e.g., intraperitoneal, subcutaneous, oral and the like) is available. Mice can be placed in the water tank for assessment of climbing, swimming, and immobility over a defined trial session, typically 6 minutes. Test session parameters for mice and rats are typically different, as known in the art.
The forced swim test (FST) is a commonly used paradigm to evaluate antidepressant activity of drugs. […] Specifically, vehicle or test compound was delivered continuously for two weeks to mice by subcutaneously implanted osmotic pumps prior to the FST assay, by methods well known in the art. On day one, the patients were introduced into the tank for a 15 minute pre-swim session. On day two, the patients were placed back into the water tank for assessment of climbing, swimming, and immobility over a 6 minute trial session. The rate of compound infusion was 0.03 mg/kg/day.

Row | Compound | FST Assay, 0.03 mg/kg
1 | CCCCCCCCCCCCCCCC(=O)N[C@@H](CCC(=O)NCCCC[C@H](NC(=O)[C@H](Cc1c[nH]cn1)NC(=O)[C@H](CC(C)C)NC(=O)[C@H](CCC(=O)O)NC(=O)[C@H](CCC(N)=O)NC(=O)[C@H](C)NC(=O)[C@H](CC(C)C)NC(=O)[C@H](CCCNC(=N)N)NC(=O)[C@H](CCC(N)=O)NC(=O)[C@H](CC(C)C)NC(=O)[C@H](C)NC(=O)[C@@H]1CSSC[C@H](NC(=O)[C@@H](N)CCCCN)C(=O)N[C@@H](CC(N)=O)C(=O)N[C@@H]([C@@H](C)O)C(=O)N[C@@H](C)C(=O)N[C@@H]([C@@H](C)O)C(=O)N1)C(=O)N[C@@H](CC(C)C)C(=O)N[C@@H](CCC(N)=O)C(=O)N[C@H](C(=O)N[C@@H](Cc1ccc(O)cc1)C(=O)N1CCC[C@H]1C(=O)N[C@@H](CCCNC(=N)N)C(=O)N[C@H](C(=O)N[C@@H](CC(N)=O)C(=O)N[C@H](C(=O)NCC(=O)N[C@@H](CO)C(=O)N[C@@H](CC(N)=O)C(=O)N[C@H](C(=O)N[C@@H](Cc1ccc(O)cc1)C(N)=O)[C@@H](C)O)C(C)C)[C@@H](C)O)[C@@H](C)O)C(=O)O [Cmpd 186, [K^18ε-(γ-Glu(Nα-C16-Chain))]-Cmpd 17] (H-KCNTATCALQRLAQELHK([γGlu-Palmitoyl])LQTYPRTNVGSNTY-NH2; disulfide 2-7 (inferred); N-terminus assumed) | Inactive
2 | CCCCCCCCCCCCCCCC(=O)N[C@@H](CCC(=O)NCCCC[C@H](NC(=O)[C@H](CCC(N)=O)NC(=O)[C@H](CC(C)C)NC(=O)[C@H](CCCNC(=N)N)NC(=O)[C@H](Cc1c[nH]cn1)NC(=O)[C@H](CC(C)C)NC(=O)[C@H](CCC(=O)O)NC(=O)[C@H](CCC(N)=O)NC(=O)[C@H](C)NC(=O)[C@H](CC(C)C)NC(=O)[C@H](CCCNC(=N)N)NC(=O)[C@H](CCC(N)=O)NC(=O)[C@H](CC(C)C)NC(=O)[C@H](C)NC(=O)[C@@H]1CSSC[C@H](NC(=O)[C@@H](N)CCCCN)C(=O)N[C@@H](CC(N)=O)C(=O)N[C@@H]([C@@H](C)O)C(=O)N[C@@H](C)C(=O)N[C@@H]([C@@H](C)O)C(=O)N1)C(=O)N[C@@H](Cc1ccc(O)cc1)C(=O)N1CCC[C@H]1C(=O)N[C@@H](CCCNC(=N)N)C(=O)N[C@H](C(=O)N[C@@H](CC(N)=O)C(=O)N[C@H](C(=O)NCC(=O)N[C@@H](CO)C(=O)N[C@@H](CC(N)=O)C(=O)N[C@H](C(=O)N[C@@H](Cc1ccc(O)cc1)C(N)=O)[C@@H](C)O)C(C)C)[C@@H](C)O)C(=O)O [Cmpd 187, [K^21ε-(γ-Glu(Nα-C16-Chain))]-Cmpd 17] (H-KCNTATCALQRLAQELHRLQK([γGlu-Palmitoyl])YPRTNVGSNTY-NH2; disulfide 2-7 (inferred); N-terminus assumed) | Inactive
3 | CCCCCCCCCCCCCCCC(=O)N[C@@H](CCC(=O)NCCCC[C@H](NC(=O)[C@@H]1CCCN1C(=O)[C@H](Cc1ccc(O)cc1)NC(=O)[C@@H](NC(=O)[C@H](CCC(N)=O)NC(=O)[C@H](CC(C)C)NC(=O)[C@H](CCCNC(=N)N)NC(=O)[C@H](Cc1c[nH]cn1)NC(=O)[C@H](CC(C)C)NC(=O)[C@H](CCC(=O)O)NC(=O)[C@H](CCC(N)=O)NC(=O)[C@H](C)NC(=O)[C@H](CC(C)C)NC(=O)[C@H](CCCNC(=N)N)NC(=O)[C@H](CCC(N)=O)NC(=O)[C@H](CC(C)C)NC(=O)[C@H](C)NC(=O)[C@@H]1CSSC[C@H](NC(=O)[C@@H](N)CCCCN)C(=O)N[C@@H](CC(N)=O)C(=O)N[C@@H]([C@@H](C)O)C(=O)N[C@@H](C)C(=O)N[C@@H]([C@@H](C)O)C(=O)N1)[C@@H](C)O)C(=O)N[C@H](C(=O)N[C@@H](CC(N)=O)C(=O)N[C@H](C(=O)NCC(=O)N[C@@H](CO)C(=O)N[C@@H](CC(N)=O)C(=O)N[C@H](C(=O)N[C@@H](Cc1ccc(O)cc1)C(N)=O)[C@@H](C)O)C(C)C)[C@@H](C)O)C(=O)O [Cmpd 188, [K^24ε-(γ-Glu(Nα-C16-Chain))]-Cmpd 17] (H-KCNTATCALQRLAQELHRLQTYPK([γGlu-Palmitoyl])TNVGSNTY-NH2; disulfide 2-7 (inferred); N-terminus assumed) | Inactive
4 | CCCCCCCCCCCCCCCC(=O)N[C@@H](CCC(=O)NCCCC[C@H](N)C(=O)N[C@H]1CSSC[C@@H](C(=O)N[C@@H](C)C(=O)N[C@@H](CC(C)C)C(=O)N[C@@H](CCC(N)=O)C(=O)N[C@@H](CCCNC(=N)N)C(=O)N[C@@H](CC(C)C)C(=O)N[C@@H](C)C(=O)N[C@@H](CCC(N)=O)C(=O)N[C@@H](CCC(=O)O)C(=O)N[C@@H](CC(C)C)C(=O)N[C@@H](Cc2c[nH]cn2)C(=O)N[C@@H](CCCNC(=N)N)C(=O)N[C@@H](CC(C)C)C(=O)N[C@@H](CCC(N)=O)C(=O)N[C@H](C(=O)N[C@@H](Cc2ccc(O)cc2)C(=O)N2CCC[C@H]2C(=O)N[C@@H](CCCNC(=N)N)C(=O)N[C@H](C(=O)N[C@@H](CC(N)=O)C(=O)N[C@H](C(=O)NCC(=O)N[C@@H](CO)C(=O)N[C@@H](CC(N)=O)C(=O)N[C@H](C(=O)N[C@@H](Cc2ccc(O)cc2)C(N)=O)[C@@H](C)O)C(C)C)[C@@H](C)O)[C@@H](C)O)NC(=O)[C@H]([C@@H](C)O)NC(=O)[C@H](C)NC(=O)[C@H]([C@@H](C)O)NC(=O)[C@H](CC(N)=O)NC1=O)C(=O)O [Cmpd 192, [K^1ε-(γ-Glu(Nα-C16-Chain))]-Cmpd 17] (H-K([γGlu-Palmitoyl])CNTATCALQRLAQELHRLQTYPRTNVGSNTY-NH2; disulfide 2-7 (inferred); N-terminus assumed) | Active
5 | CCCCCCCCCCCCCCCC(=O)N[C@@H](CCC(=O)NCCCC[C@H](NC(=O)[C@H](CCC(N)=O)NC(=O)[C@H](CC(C)C)NC(=O)[C@H](C)NC(=O)[C@@H]1CSSC[C@H](NC(=O)[C@@H](N)CCCCN)C(=O)N[C@@H](CC(N)=O)C(=O)N[C@@H]([C@@H](C)O)C(=O)N[C@@H](C)C(=O)N[C@@H]([C@@H](C)O)C(=O)N1)C(=O)N[C@@H](CC(C)C)C(=O)N[C@@H](C)C(=O)N[C@@H](CCC(N)=O)C(=O)N[C@@H](CCC(=O)O)C(=O)N[C@@H](CC(C)C)C(=O)N[C@@H](Cc1c[nH]cn1)C(=O)N[C@@H](CCCNC(=N)N)C(=O)N[C@@H](CC(C)C)C(=O)N[C@@H](CCC(N)=O)C(=O)N[C@H](C(=O)N[C@@H](Cc1ccc(O)cc1)C(=O)N1CCC[C@H]1C(=O)N[C@@H](CCCNC(=N)N)C(=O)N[C@H](C(=O)N[C@@H](CC(N)=O)C(=O)N[C@H](C(=O)NCC(=O)N[C@@H](CO)C(=O)N[C@@H](CC(N)=O)C(=O)N[C@H](C(=O)N[C@@H](Cc1ccc(O)cc1)C(N)=O)[C@@H](C)O)C(C)C)[C@@H](C)O)[C@@H](C)O)C(=O)O [Cmpd 193, [K^11ε(γ-Glu(Nα-C16-Chain))]-Cmpd 17] (H-KCNTATCALQK([γGlu-Palmitoyl])LAQELHRLQTYPRTNVGSNTY-NH2; disulfide 2-7 (inferred); N-terminus assumed) | Inactive
